{"source": "patent US12569495B2", "about": "“Inhibitors of porcine reproductive and respiratory syndrome virus” (UNIVERSITY OF CONNECTICUT, priority 2020, dated 2026)", "key": {"[1]": {"target": "T1, protein-protein interactions (PPI) between CD163-SRCR5 domain and PRRSV GP2a protein (Sus scrofa, UniProt Q2VL90)", "T1 construct": "The amplified cDNA fragments of SRCR2 or SRCR5 were subcloned into the pBiFC-VN155(I152L) vector; Myc tag (from vector backbone pMyc-CMV); expressed in transfected cells; host or cells: HEK293T", "T1 sequence (Q2VL90 477-577)": "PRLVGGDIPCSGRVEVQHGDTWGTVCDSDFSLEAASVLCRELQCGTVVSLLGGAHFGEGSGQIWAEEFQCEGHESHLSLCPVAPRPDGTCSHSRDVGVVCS", "assay": "BiFC assay between SRCR5-VN and GP2a-VC proteins", "assay_type": "cell-based, porcine CD163; PRRSV", "details": "HEK293T cells; compounds at 5 μM; 24 h; DMSO as Ctrl", "source_text": "(§1) The N-terminus and C-terminus of the truncated Venus-I152L were inserted into vector backbone pMyc-CMV and pCMV-HA, constituting commercial plasmids pBiFC-VN155(I152L) and pBiFC-VC155, respectively (Addgene, Watertown, MA, USA). See Kodama and Hu, Biotechniques 49:793-805 (2010). cDNA fragments for the scavenger receptor cysteine-rich domain 2 (SRCR2) and SRCR5 of porcine CD163 receptor, and for PRRSV glycoproteins GP2a and GP4 were amplified by RT-PCR. The amplified cDNA fragments of SRCR2 or SRCR5 were subcloned into the pBiFC-VN155(I152L) vector digested with EcoRI/BglII. For constructions of GP2a and GP4 fusion proteins, cDNA fragments encoding GP2a or GP4 were subcloned into the pBiFC-VC155 vector digested with EcoRI/BglII. All plasmid clones were verified by DNA Sanger sequencing.\n(§2) HEK293T cells cultured in 12-well plates were transfected with appropriate plasmids for each BiFC assay using FuGENE® 6 (Promega, Madison, WI, USA). After 5 h, various concentrations of chemical compounds were added to the culture media. DMSO was used as the vehicle control. Fluorescence images of treated cells at 24 h after plasmid transfection were captured using an inverted Nikon fluorescence microscope. Fluorescence intensity of treated cells was measured by ImageJ.\nUsing the previously described BiFC vector based on the fragmented venus protein (VN-155[I152L], hereafter named VN) and (VC-155, hereafter named VC), fusion protein constructs were established between the porcine CD163 protein SRCR5 or SRCR2 domain and VN, and between the PRRSV minor glycoproteins (GP2a or GP4) and VC (FIG. 1A, 2). See Kodama et al., Biotechniques 49(5): 793-805 (2010). These plasmids were co-expressed in HEK293T cells to evaluate the PPIs between the SRCR5 domain and GP2a or GP4.\nThe BiFC assays was tested to determine whether it could identify small molecules with potential to block the protein-protein interactions between CD163 and PRRSV. A customized virtual screen of a library of commercially available small molecules was performed with the AtomNet® model at a region centered around R561 (FIG. 3) based on the available 3-D protein structure of porcine CD163-SRCR5 domain, and 74 compounds predicted to target this potential binding site were procured. Ma et al., J. Virol. 91(3): e01897-16 (2017). These compounds were tested using the BiFC assay, to evaluate their ability to inhibit the PPI between GP2a and SRCR5. Plasmids were co-transfected in HEK293T cells, 4 h later, compounds were individually administered to cells at 5 μM. Twenty-four hours later, images were taken under a fluorescence microscope and the fluorescence quantified. […] Until these studies, there has been no known biological activity reported for compound B7."}, "[2]": {"target": "T2, PPI between PRRSV GP4 glycoprotein and CD163-SRCR5 domain (Sus scrofa, UniProt Q2VL90)", "T2 construct": "The amplified cDNA fragments of SRCR2 or SRCR5 were subcloned into the pBiFC-VN155(I152L) vector; Myc tag (from vector backbone pMyc-CMV); expressed in transfected cells; host or cells: HEK293T", "T2 sequence (Q2VL90 477-577)": "as above", "assay": "BiFC assay between SRCR5-VN and GP4-VC proteins", "assay_type": "cell-based, porcine CD163; PRRSV", "details": "HEK293T cells; DMSO as Ctrl", "source_text": "as §1, with “All plasmid clones were verified by DNA Sanger sequencing.” left out\nas §2, with “After 5 h, various concentrations of chemical compounds were added to the culture media. DMSO was used as the vehicle control.” left out, “ImageJ. […]” for “ImageJ.”\nThe BiFC assays was tested to determine whether it could identify small molecules with potential to block the protein-protein interactions between CD163 and PRRSV. […] Twenty-four hours later, images were taken under a fluorescence microscope and the fluorescence quantified. […]"}}, "note": "Entries after “also recorded” stand apart in the source; their conditions may differ.", "data": [{"smiles": "Cc1cc(F)ccc1S(=O)(=O)Nc1nc2ccccc2nc1Nc1cccc(S(=O)(=O)N2CCOCC2)c1", "note": "[Compound B7, 4-fluoro-2-methyl-N-[3-(3-morpholin-4-ylsulfonylanilino)quinoxalin-2-yl]benzenesulfonamide]", "values": [{"measurement": "inhibition of PPI between GP2a and SRCR5 (venus fluorescence in BiFC assay)", "setting": "[1]", "value": "significantly inhibited the reconstitution of venus fluorescence; also recorded: positive inhibitory effect; also recorded: significantly inhibits the interaction"}, {"measurement": "inhibition of PPI between PRRSV GP4 glycoprotein and CD163-SRCR5 domain (BiFC)", "setting": "[2]", "value": "also inhibited the PPI; also recorded: significantly inhibits the interaction"}]}]}
